Laboratory results taken from ChEMBL document CHEMBL3046898, “Synthesis and characterization of flurbiprofen hydrazide derivatives as potential anti-HCV, anticancer and antimicrobial agents” (2013).
The source made the active and inactive calls. The calls are words filed in the database; no cut-off is given here.

Assays:
SN12C = test: Cytotoxicity against human SN12C assessed as cell growth at 10 uM after 48 hrs by SRB assay; type: functional; settings: read-out: Activity
CAKI-1 = test: Cytotoxicity against human Caki1 assessed as cell growth at 10 uM after 48 hrs by SRB assay; type: functional; settings: CAKI-1, 48 h, read-out: Activity
HOP-62 = test: Cytotoxicity against human HOP62 assessed as cell growth at 10 uM after 48 hrs by SRB assay; type: functional; settings: HOP-62, 48 h, read-out: Activity
Micrococcus luteus = test: Antibacterial activity against Micrococcus luteus at 10 mg/ml after 24 hrs by disc diffusion method; type: functional, organism-based
SK-OV-3 = test: Cytotoxicity against human SKOV3 assessed as cell growth at 10 uM after 48 hrs by SRB assay; type: functional; settings: SK-OV-3, 48 h, read-out: Activity
Proteus vulgaris = test: Antibacterial activity against Proteus vulgaris at 10 mg/ml after 24 hrs by disc diffusion method; type: functional, organism-based
UACC-62 = test: Cytotoxicity against human UACC62 assessed as cell growth at 10 uM after 48 hrs by SRB assay; type: functional; settings: UACC-62, 48 h, read-out: Activity
MDA-MB-468 = test: Cytotoxicity against human MDA-MB-468 assessed as cell growth at 10 uM after 48 hrs by SRB assay; type: functional; settings: MDA-MB-468, 48 h, read-out: Activity
HL-60(TB) = test: Cytotoxicity against human HL-60(TB) assessed as cell growth at 10 uM after 48 hrs by SRB assay; type: functional; settings: HL-60, 48 h, read-out: Activity
COLO 205 = test: Cytotoxicity against human COLO205 assessed as cell growth at 10 uM after 48 hrs by SRB assay; type: functional; settings: COLO 205, 48 h, read-out: Activity
HCT-15 = test: Cytotoxicity against human HCT15 assessed as cell growth at 10 uM after 48 hrs by SRB assay; type: functional; settings: HCT-15, 48 h, read-out: Activity
Klebsiella aerogenes = test: Antibacterial activity against Enterobacter aerogenes at 6.25 to 200 ug/ml after 24 hrs by microwell dilution method; type: functional, organism-based
A498 = test: Cytotoxicity against human A498 assessed as cell growth at 10 uM after 48 hrs by SRB assay; type: functional; settings: A498, 48 h, read-out: Activity
Aspergillus = test: Antifungal activity against Aspergillus at 10 mg/ml after 72 hrs by disc diffusion method; type: functional, organism-based
Salmonella paratyphi = test: Antibacterial activity against Salmonella paratyphi at 10 mg/ml after 24 hrs by disc diffusion method; type: functional, organism-based; settings: Salmonella enterica subsp. enterica serovar Paratyphi A
Pseudomonas aeruginosa = test: Antibacterial activity against Pseudomonas aeruginosa at 10 mg/ml after 24 hrs by disc diffusion method; type: functional, organism-based
Malme-3M = test: Cytotoxicity against human MALME-3M assessed as cell growth at 10 uM after 48 hrs by SRB assay; type: functional; settings: read-out: Activity
BT-549 = test: Cytotoxicity against human BT549 assessed as cell growth at 10 uM after 48 hrs by SRB assay; type: functional; settings: BT-549, 48 h, read-out: Activity
MCF7 = test: Cytotoxicity against human MCF7 assessed as cell growth at 10 uM after 48 hrs by SRB assay; type: functional; settings: MCF7, 48 h, read-out: Activity
CCRF-CEM = test: Cytotoxicity against human CCRF-CEM assessed as cell growth at 10 uM after 48 hrs by SRB assay; type: functional; settings: read-out: Activity
Candida tropicalis = test: Antifungal activity against Candida tropicalis at 10 mg/ml after 48 hrs by disc diffusion method; type: functional, organism-based
Photorhabdus luminescens = test: Antibacterial activity against Photorhabdus luminescens at 6.25 to 200 ug/ml after 24 hrs by microwell dilution method; type: functional, organism-based
[1] = test system: Acinetobacter radioresistens; test: Antibacterial activity against Acinetobacter radioresistens at 6.25 to 200 ug/ml after 24 hrs by microwell dilution method; type: functional, organism-based
NCI-H226 = test: Cytotoxicity against human NCI-H226 assessed as cell growth at 10 uM after 48 hrs by SRB assay; type: functional; settings: NCI-H226, 48 h, read-out: Activity
SK-MEL-5 = test: Cytotoxicity against human SK-MEL-5 assessed as cell growth at 10 uM after 48 hrs by SRB assay; type: functional; settings: SK-MEL-5, 48 h, read-out: Activity
Staphylococcus aureus [2] = test: Antibacterial activity against Staphylococcus aureus at 10 mg/ml after 24 hrs by disc diffusion method; type: functional
ACHN = test: Cytotoxicity against human ACHN assessed as cell growth at 10 uM after 48 hrs by SRB assay; type: functional; settings: read-out: Activity
NCI-H460 = test: Cytotoxicity against human NCI-H460 assessed as cell growth at 10 uM after 48 hrs by SRB assay; type: functional; settings: NCI-H460, 48 h, read-out: Activity
SK-MEL-2 = test: Cytotoxicity against human SK-MEL-2 assessed as cell growth at 10 uM after 48 hrs by SRB assay; type: functional; settings: SK-MEL-2, 48 h, read-out: Activity
Staphylococcus cohnii = test: Antibacterial activity against Staphylococcus cohnii at 6.25 to 200 ug/ml after 24 hrs by microwell dilution assay; type: functional, organism-based
K562 = test: Cytotoxicity against human K562 assessed as cell growth at 10 uM after 48 hrs by SRB assay; type: functional; settings: K562, 48 h, read-out: Activity
PC-3 = test: Cytotoxicity against human PC3 assessed as cell growth at 10 uM after 48 hrs by SRB assay; type: functional; settings: PC-3, 48 h, read-out: Activity
SF-268 = test: Cytotoxicity against human SF268 assessed as cell growth at 10 uM after 48 hrs by SRB assay; type: functional; settings: SF-268, 48 h, read-out: Activity
EKVX = test: Cytotoxicity against human EKVX assessed as cell growth at 10 uM after 48 hrs by SRB assay; type: functional; settings: read-out: Activity
HCT-116 = test: Cytotoxicity against human HCT116 assessed as cell growth at 10 uM after 48 hrs by SRB assay; type: functional; settings: HCT-116, 48 h, read-out: Activity
MOLT-4 = test: Cytotoxicity against human MOLT4 assessed as cell growth at 10 uM after 48 hrs by SRB assay; type: functional; settings: MOLT-4, 48 h, read-out: Activity
SR = test: Cytotoxicity against human SR assessed as cell growth at 10 uM after 48 hrs by SRB assay; type: functional; settings: read-out: Activity
[3] = Cytotoxicity against human NCI-ADR-RES assessed as cell growth at 10 uM after 48 hrs by SRB assay; type: functional; settings: read-out: Activity
T47D = test: Cytotoxicity against human T47D assessed as cell growth at 10 uM after 48 hrs by SRB assay; type: functional; settings: read-out: Activity
Nakaseomyces glabratus = test: Antifungal activity against Candida glabrata at 10 mg/ml after 48 hrs by disc diffusion method; type: functional, organism-based
Micrococcus lylae = test: Antibacterial activity against Micrococcus lylae at 6.25 to 200 ug/ml after 24 hrs by microwell dilution method; type: functional, organism-based
Staphylococcus aureus [4] = test: Antibacterial activity against Staphylococcus aureus at 6.25 to 200 ug/ml after 24 hrs by microwell dilution assay; type: functional, organism-based

CC(C(=O)NN1C(=O)CSC1c1ccc(C(F)(F)F)cc1)c1ccc(-c2ccccc2)c(F)c1 (configuration not stated)
growth at 10 µM (SN12C): 72.3%
growth at 10 µM (CAKI-1): 33.6%
growth at 10 µM (HOP-62): 82.1%
Activity (Micrococcus luteus): inactive
growth at 10 µM (SK-OV-3): 94.7%
Activity (Proteus vulgaris): inactive
growth at 10 µM (UACC-62): 50.9%
growth at 10 µM (MDA-MB-468): 59.4%
growth at 10 µM (HL-60(TB)): 36.9%
growth at 10 µM (COLO 205): 108%
growth at 10 µM (HCT-15): 69.5%
Activity (Klebsiella aerogenes): inactive
growth at 10 µM (A498): 56.8%
Activity (Aspergillus): inactive
Activity (Salmonella paratyphi): inactive
Activity (Pseudomonas aeruginosa): inactive
growth at 10 µM (Malme-3M): 63%
growth at 10 µM (BT-549): 68%
growth at 10 µM (MCF7): 43%
growth at 10 µM (CCRF-CEM): 74.7%
Activity (Candida tropicalis): inactive
Activity (Photorhabdus luminescens): inactive
Activity [1]: inactive
growth at 10 µM (NCI-H226): 86%
growth at 10 µM (SK-MEL-5): 81.8%
Activity (Staphylococcus aureus [2]): inactive
growth at 10 µM (ACHN): 59.6%
growth at 10 µM (NCI-H460): 40.5%
growth at 10 µM (SK-MEL-2): 88.4%
Activity (Staphylococcus cohnii): inactive
growth at 10 µM (K562): 39.5%
growth at 10 µM (PC-3): 37.5%
growth at 10 µM (SF-268): 62.1%
growth at 10 µM (EKVX): 57.9%
growth at 10 µM (HCT-116): 45.5%
growth at 10 µM (MOLT-4): 43.5%
growth at 10 µM (SR): 20.8%
growth at 10 µM [3]: 86.5%
growth at 10 µM (T47D): 33.4%
Activity (Nakaseomyces glabratus): inactive
Activity (Micrococcus lylae): inactive
Activity (Staphylococcus aureus [4]): inactive
